From patent publication US20120040941A1, “5-(2--1-HYDROXYETHYL)-8-HYDROXYQUINOLIN-2(1H)-ONE AND ITS USE IN THE TREATMENT OF PULMONARY DISEASES” (priority 2009, published 2012)

How the values were obtained:
Type in all cases: in vivo, human
[1] = test system: asthma patients; assay: Clinical Phase II study: lung function (spirometry, body plethysmography) after single inhaled doses
Source text: (§1) Clinical Phase II study: A randomised double-blind, double-dummy, placebo and active comparator-controlled, cross-over trial assesses the activity, safety, tolerability and pharmacokinetics of single doses of 5-(2-{[6-(2,2-difluoro-2-phenylethoxy)hexyl]amino}-1-(R)-hydroxyethyl)-8-hydroxyquinolin-2(1H)-one heminapadisylate by inhalation in asthma patients.
(§2) Methods: Men with a diagnosis of mild to moderate persistent asthma, as defined by the 2006 GINA guideline, for at least 6 months prior to screening and with a FEV 1 61-85% of the predicted normal values (according to Quanjer et al. 1993) were randomised to treatment sequences comprising a single-dose administration of 5-(2-{[6-(2,2-difluoro-2-phenylethoxy)hexyl]amino}-1-(R)-hydroxyethyl)-8-hydroxyquinolin-2(1H)-one heminapadisylate (at metered nominal doses of 5, 10 and 25 micrograms in the Cyclohaler® device), two administrations (at time points 0 and 12 hours) of Salmeterol (at a metered nominal dose of 50 micrograms in the Cyclohaler® device) and placebo administered all of them by means of a dry powder inhaler. Lung function measurements included (by spirometry) FEV1, PEF, FVC, FEF25-75, and (by body plethysmography) sGaw and Raw.

[2] = Clinical Phase II study: pharmacokinetics, plasma level after inhalation; details: subjects receiving the dose of 5 micrograms by inhalation
Source text: as §1, §2

[3] = test system: asthma patients; assay: Clinical Phase II study: safety and tolerability, adrenergic adverse events
Source text: as §1, §2

[4] = single dose 5 micrograms, patients with asthma

For `O=c1ccc2c([C@@H](O)CNCCCCCCOCC(F)(F)c3ccccc3)ccc(O)c2[nH]1` [5-(2-{[6-(2,2-difluoro-2-phenylethoxy)hexyl]amino}-1-(R)-hydroxyethyl)-8-hydroxyquinolin-2(1H)-one], the “differences in dose effect between the different doses” value ([1]; 5, 10 and 25 micrograms) was “no evidence of differences in dose effect”, the “bronchodilatory action, time after dosing” value ([1]; all doses (5, 10 and 25 micrograms), single inhalation) was “up to 36 hours” and the bronchodilation [1, 4] was “supramaximal long-lasting bronchodilation”. The “increase in average trough FEV1 compared to salmeterol” value ([1]; single dose vs salmeterol 50 micrograms at 0 and 12 hours) was “statistically significant”, the “average peak and trough FEV1 compared with placebo and with salmeterol” value ([1]; single inhaled doses 5, 10 and 25 micrograms (all doses tested), salmeterol 2 x 50 micrograms, mild to moderate persistent asthma) was “clearly increased” and the plasma level [2] was less than 2.5 pg/mL. The “adverse events commonly seen after adrenergic stimulation (tremor, tachycardia, restlessness)” value ([3]; doses 5, 10 and 25 micrograms, single inhalation) was “occurred only with the two higher (10 and 25 micrograms) doses” and the systemic adrenergic effects [3, 4] was “without producing systemic adrenergic effects”.
